Source: patent US20250144067A1, “PERSONALIZED STARVATION THERAPY FOR CANCER” (Faeth Therapeutics, Inc., priority 2021, published 2025)
Where a name gives a salt, the structure may show the parent alone.

Key:
[1] = tested on: NCI-H292 lung cancer cells; assay: FDA drug screening, complete media vs cholesterol-free media without statin (TABLE 1); format: cell-based, human
[2] = tested on: NCI-H292 lung cancer cells; assay: FDA drug screening, complete media vs cholesterol-free media with simvastatin (TABLE 2); format: cell-based, human; settings: for Cholesterol-free media + simvastatin (0.04 μM) / Complete Media: NCI-H292 cells
[3] = Complete minus Cholesterol-free, greater than 0 enhanced anti-cancer activity, about 0 neutral, below 0 antagonists
[4] = NCI-H292 cells in cholesterol-free media without statin
[5] = NCI-H292 cells in complete media
[6] = FDA drug library screen, cholesterol-free media with simvastatin 0.04 μM
[7] = FDA drug library screen, complete media
[8] = complete media minus cholesterol-free media + simvastatin, >0 enhanced anti-cancer activity, about 0 neutral, <0 antagonist
[9] = Complete minus Cholesterol-free, […]
[10] = NCI-H292 cells, FDA drug library screen, cholesterol-free media without statin
[11] = NCI-H292 cells, FDA drug library screen, complete media
[12] = drug in cholesterol-free media with simvastatin 0.04 μM
[13] = NCI-H292 cells, cholesterol-free media without statin, FDA drug library screen
[14] = NCI-H292 cells, complete media, FDA drug library screen
[15] = complete vs cholesterol-free media, >0 enhanced anti-cancer activity, about 0 neutral, <0 antagonist
[16] = complete media vs cholesterol-free media + simvastatin (0.04 μM), >0 enhanced anti-cancer activity, about 0 neutral, <0 antagonist
[17] = Complete minus Cholesterol-free, greater than 0 enhanced anti-cancer activity, about 0 neutral, below 0 antagonist
[18] = Complete minus Cholesterol-free, >0 enhanced anti-cancer activity, about 0 neutral, <0 antagonist
[19] = NCI-H292 cells, cholesterol-free media without statin
[20] = complete vs cholesterol-free media, greater than 0 enhanced anti-cancer activity, about 0 neutral, below 0 antagonists
[21] = cholesterol-free media with simvastatin 0.04 μM, FDA drug library screen (TABLE 2)
[22] = complete media, FDA drug library screen (TABLE 2)
[23] = complete media minus cholesterol-free media + simvastatin (0.04 μM), >0 enhanced anti-cancer activity, about 0 neutral, <0 antagonist

CC[C@@H]([C@H](C)O)n1ncn(-c2ccc(N3CCN(c4ccc(OC[C@@H]5CO[C@@](Cn6cncn6)(c6ccc(F)cc6F)C5)cc4)CC3)cc2)c1=O [Posaconazole]
Difference [1, 3]: −0.60
Cholesterol-free [1, 4]: 1.481
Complete [1, 5]: 0.8852
Cholesterol-free media + simvastatin (0.04 μM) [2, 6]: 1.5
Complete Media [2, 7]: 1.904
Difference [2, 8]: 0.40

C[C@H](CCC(=O)NCCS(=O)(=O)O)[C@H]1CC[C@H]2[C@@H]3[C@H](O)C[C@@H]4C[C@H](O)CC[C@]4(C)[C@H]3CC[C@]12C [Taurochenodeoxycholic acid]
Difference [1, 9]: −0.12
Cholesterol-free [1, 10]: 0.9676
Complete [1, 11]: 0.8469
Cholesterol-free media + simvastatin (0.04 μM) [2, 12]: 1.179
Complete Media ([2]; drug in complete media): 1.003
Difference ([2]; complete media vs cholesterol-free media + simvastatin (0.04 μM), […]): −0.18

CC(=O)OC[C@H]1O[C@@H](n2ccc(=O)[nH]c2=O)[C@H](OC(C)=O)[C@@H]1OC(C)=O [Uridine triacetate]
Cholesterol-free [1, 13]: 1.055
Complete [1, 14]: 1.37
Difference [1, 15]: 0.32
Cholesterol-free media + simvastatin (0.04 μM) [2, 12]: 1.076
Complete Media ([2]; drug in complete media): 0.8641
Difference [2, 16]: −0.21

CC1(C)S[C@@H]2[C@H](NC(=O)[C@H](N)c3ccc(O)cc3)C(=O)N2[C@H]1C(=O)[O-].[Na+] [Amoxicillin (sodium)]
Difference [1, 17]: −0.16
Cholesterol-free [1, 10]: 0.8965
Complete [1, 11]: 0.7329
Cholesterol-free media + simvastatin (0.04 μM) [2, 12]: 0.9358
Complete Media ([2]; drug in complete media): 0.759
Difference [2, 16]: −0.18

CCC1(c2ccccc2)C(=O)NCNC1=O [Primidone]
Difference [1, 3]: −0.48
Cholesterol-free [1, 4]: 1.462
Complete [1, 5]: 0.9788
Cholesterol-free media + simvastatin (0.04 μM) [2, 6]: 0.9863
Complete Media [2, 7]: 0.8914
Difference [2, 16]: −0.09

C=CC(=O)N1CCC[C@@H](n2nc(-c3ccc(Oc4ccccc4)cc3)c3c(N)ncnc32)C1 [Ibrutinib]
Difference [1, 18]: −0.07
Cholesterol-free [1, 13]: 0.4459
Complete [1, 14]: 0.3765
Cholesterol-free media + simvastatin (0.04 μM) [2, 6]: 0.5962
Complete Media [2, 7]: 0.4594
Difference [2, 16]: −0.14

Nc1nc(N)nc(-c2cc(Cl)ccc2Cl)n1 [Irsogladine]
Difference [1, 18]: −0.28
Cholesterol-free [1, 19]: 1.27
Complete ([1]; NCI-H292 cells, complete media): 0.9941
Cholesterol-free media + simvastatin (0.04 μM) [2, 12]: 1.185
Complete Media ([2]; drug in complete media): 0.995
Difference [2, 16]: −0.19

Ifenprodil (tartrate)
Difference [1, 18]: 0.02
Cholesterol-free [1, 13]: 0.8921
Complete [1, 14]: 0.9115
Cholesterol-free media + simvastatin (0.04 μM) [2, 6]: 0.4918
Difference [2, 8]: 0.57

CCCOc1ccc(S(=O)(=O)N2CCN(CCO)CC2)cc1-c1nc2c(CCC)cn(CC)c2c(=O)[nH]1 [Mirodenafil (dihydrochloride)]
Difference [1, 18]: −0.27
Cholesterol-free [1, 19]: 1.435
Cholesterol-free media + simvastatin (0.04 μM) [2, 6]: 0.7461
Complete Media [2, 7]: 0.9273
Difference [2, 8]: 0.18

CC(C(=O)O)c1ccc(-c2ccccc2)c(F)c1 (stereo not drawn) [Flurbiprofen]
Cholesterol-free [1, 13]: 1.072
Complete [1, 14]: 1.387
Difference [1, 15]: 0.31
Cholesterol-free media + simvastatin (0.04 μM) [2, 12]: 1.217
Complete Media ([2]; drug in complete media): 1.042
Difference [2, 16]: −0.18

CNS(=O)(=O)CCc1ccc2[nH]cc(C3CCN(C)CC3)c2c1 [Naratriptan (hydrochloride)]
Difference [1, 17]: −0.17
Cholesterol-free [1, 10]: 1.077
Complete [1, 11]: 0.9077
Cholesterol-free media + simvastatin (0.04 μM) [2, 12]: 1.179
Complete Media ([2]; drug in complete media): 0.9588
Difference [2, 16]: −0.22

Cc1ccc(NC(=O)c2ccc(CN3CCN(C)CC3)cc2)cc1Nc1nc(-c2cccnc2)cs1 [Masitinib]
Difference [1, 18]: −0.19
Cholesterol-free [1, 19]: 0.8775
Complete ([1]; NCI-H292 cells, complete media): 0.6881
Cholesterol-free media + simvastatin (0.04 μM) [2, 6]: 0.9334
Complete Media [2, 7]: 0.8067
Difference [2, 16]: −0.13

CN(C)CCOC(=O)C(c1ccccc1)C1(O)CCCC1 (stereo not drawn) [Cyclopentolate (hydrochloride)]
Difference [1, 3]: −0.56
Cholesterol-free [1, 4]: 1.412
Complete [1, 5]: 0.8527
Cholesterol-free media + simvastatin (0.04 μM) [2, 12]: 1.064
Complete Media ([2]; drug in complete media): 0.8727
Difference [2, 16]: −0.19

CC(=O)OCC(=O)[C@@]1(O)CC[C@H]2[C@@H]3CCC4=CC(=O)C=C[C@]4(C)[C@H]3[C@@H](O)C[C@@]21C [Prednisolone acetate]
Cholesterol-free [1, 19]: 0.9263
Complete ([1]; NCI-H292 cells, complete media): 0.6003
Difference [1, 20]: −0.33
Cholesterol-free media + simvastatin (0.04 μM) [2, 6]: 0.7463
Complete Media [2, 7]: 0.6367
Difference [2, 16]: −0.11

Cl.Cl.OCCN1CCN(CCC=C2c3ccccc3Sc3ccc(C(F)(F)F)cc32)CC1 (mixture of isomers) [Flupentixol dihydrochloride]
Cholesterol-free [1, 19]: 1.101
Complete ([1]; NCI-H292 cells, complete media): 0.7804
Difference [1, 20]: −0.32
Cholesterol-free media + simvastatin (0.04 μM) [2, 6]: 0.5255
Complete Media [2, 7]: 1.084
Difference [2, 8]: 0.56

CC(C)N1CCN(c2ccc(OCC3COC(Cn4cncn4)(c4ccc(Cl)cc4Cl)O3)cc2)CC1 (stereo not drawn) [Terconazole]
Cholesterol-free [1, 13]: 1.052
Complete [1, 14]: 1.158
Difference [1, 15]: 0.11
Cholesterol-free media + simvastatin (0.04 μM) [2, 6]: 0.6294
Complete Media [2, 7]: 1.003
Difference [2, 8]: 0.37

COC(=O)N[C@@H](C)CNc1nccc(-c2cn(C(C)C)nc2-c2cc(Cl)cc(NS(C)(=O)=O)c2F)n1 [Encorafenib]
Difference [1, 18]: −0.19
Cholesterol-free [1, 19]: 0.5021
Complete ([1]; NCI-H292 cells, complete media): 0.3116
Cholesterol-free media + simvastatin (0.04 μM) [2, 21]: 0.6063
Complete Media [2, 22]: 0.5501
Difference [2, 23]: −0.06

CN(C)c1nc(N(C)C)nc(N(C)C)n1 [Altretamine]
Difference [1, 18]: −0.04
Cholesterol-free [1, 13]: 0.9853
Complete [1, 14]: 0.9434
Cholesterol-free media + simvastatin (0.04 μM) [2, 12]: 1.135
Complete Media ([2]; drug in complete media): 0.9636
Difference [2, 16]: −0.17

NCCCC(O)(P(=O)(O)O)P(=O)(O)O [Alendronate (sodium hydrate)]
Cholesterol-free [1, 13]: 0.1249
Complete [1, 14]: 0.2776
Difference [1, 15]: 0.15
Cholesterol-free media + simvastatin (0.04 μM) [2, 6]: 0.388
Difference [2, 8]: 0.78

Nc1cccc2c1C(=O)N(C1CCC(=O)NC1=O)C2=O (stereo not drawn) [Pomalidomide]
Difference [1, 18]: −0.27
Cholesterol-free [1, 19]: 1.37
Complete ([1]; NCI-H292 cells, complete media): 1.095
Cholesterol-free media + simvastatin (0.04 μM) [2, 21]: 1.093
Complete Media [2, 22]: 1.03
Difference [2, 23]: −0.06

Enasidenib (mesylate)
Difference [1, 9]: −0.61
Cholesterol-free [1, 4]: 1.538
Complete [1, 5]: 0.9281
Cholesterol-free media + simvastatin (0.04 μM) ([2]; cholesterol-free media with simvastatin 0.04 μM, […]): 1.526
Complete Media ([2]; complete media, […]): 1.616
Difference ([2]; complete media minus cholesterol-free media + simvastatin, […]): 0.09

CCC(=O)O[C@]1(C(C)=O)CC[C@H]2[C@@H]3CCC4=CC(=O)C=C[C@]4(C)[C@H]3[C@@H](O)C[C@@]21C [Deprodone propionate]
Cholesterol-free [1, 13]: 0.6965
Complete [1, 14]: 0.786
Difference [1, 15]: 0.09
Cholesterol-free media + simvastatin (0.04 μM) ([2]; cholesterol-free media with simvastatin 0.04 μM, cell growth value in FDA drug screen): 0.6417
Complete Media ([2]; complete media, cell growth value in FDA drug screen): 0.6907
Difference [2, 8]: 0.05
